What was measured:
Assay type in all cases: functional, cell-based
Design in all cases: scale not given: the % may be the effect or the level left
Settings in all cases: Oocyte
[1] = biological target: T1, Monocarboxylate transporter 1 (Rattus norvegicus) (UniProt P53987); test: TP_TRANSPORTER: inhibition of lactate uptake (Lactate:0.1mM, alpha-Ketoisocaproate:5mM, preincubation with aminoxyacetate) in Xenopus laevis oocytes
T1 sequence (whole entry): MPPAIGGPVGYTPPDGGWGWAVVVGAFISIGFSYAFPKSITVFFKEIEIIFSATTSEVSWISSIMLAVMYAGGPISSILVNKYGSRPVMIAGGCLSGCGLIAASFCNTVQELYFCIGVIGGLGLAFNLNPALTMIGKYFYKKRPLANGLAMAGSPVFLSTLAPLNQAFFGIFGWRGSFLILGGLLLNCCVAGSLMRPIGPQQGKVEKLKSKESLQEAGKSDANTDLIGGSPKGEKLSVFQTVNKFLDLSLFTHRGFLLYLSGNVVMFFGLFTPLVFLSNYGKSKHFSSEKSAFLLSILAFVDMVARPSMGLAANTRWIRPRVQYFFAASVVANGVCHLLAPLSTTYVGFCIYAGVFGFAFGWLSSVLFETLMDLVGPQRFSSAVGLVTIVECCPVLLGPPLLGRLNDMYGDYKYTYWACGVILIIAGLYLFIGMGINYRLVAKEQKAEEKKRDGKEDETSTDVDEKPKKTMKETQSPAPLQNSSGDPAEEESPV

[2] = biological target: T1, Monocarboxylate transporter 1 (Rattus norvegicus); test: TP_TRANSPORTER: inhibition of lactate uptake (Lactate:0.1mM, D,L-3-Hydroxybutyrate:50mM, preincubation with aminoxyacetate) in Xenopus laevis oocytes
[3] = biological target: T1, Monocarboxylate transporter 1 (Rattus norvegicus); test: TP_TRANSPORTER: inhibition of lactate uptake (Lactate:0.1mM, Pyruvate:1mM, preincubation with aminoxyacetate) in Xenopus laevis oocytes
[4] = biological target: Monocarboxylate transporter 1 (Rattus norvegicus) (UniProt P53987); test: TP_TRANSPORTER: inhibition of lactate uptake (Lactate:0.1mM, pCMBS:1mM, preincubation with aminoxyacetate) in Xenopus laevis oocytes
[5] = biological target: T1, Monocarboxylate transporter 1 (Rattus norvegicus); test: TP_TRANSPORTER: inhibition of lactate uptake (Lactate:0.1mM, Acetoacetate:50mM, preincubation with aminoxyacetate) in Xenopus laevis oocytes
[6] = biological target: T1, Monocarboxylate transporter 1 (Rattus norvegicus); test: TP_TRANSPORTER: inhibition of lactate uptake (Lactate:0.1mM, 4-CIN:5mM, preincubation with aminoxyacetate) in Xenopus laevis oocytes

## CC(C)CC(=O)C(=O)O
[1]
  Activity: 13%

## CC(O)CC(=O)O (racemic)
[2]
  Activity: 7%

## CC(=O)C(=O)O
[3]
  Activity: 23%

## p-Chloromercuribenzenesulfonate
[4]
  Activity: 18%

## CC(=O)CC(=O)O
[5]
  Activity: 13%

## N#C/C(=C\c1ccc(O)cc1)C(=O)O
[6]
  Activity: 9%

— ChEMBL document CHEMBL2074141, “Comparison of lactate transport in astroglial cells and monocarboxylate transporter 1 (MCT 1) expressing Xenopus laevis oocytes. Expression of two different monocarboxylate transporters in astroglial cells and neurons” (J Biol Chem, 1997)
